Results reported in article PMC10818749, “Toxicity Studies of Cardiac-Targeting Peptide Reveal a Robust Safety Profile” (Pharmaceutics, 2024).
Ends that are not written are not given here.

Legend:
COX1 = molecular target: T1, COX1 (Homo sapiens, UniProt P23219); experiment: COX1 enzymatic assay; format: biochemical; conditions: up to 30 µM
T1 construct: purchased BPS Bioscience
Method: Enzymatic Assays: AChE, COX1, COX2, MAOA, PDE3A, and PDE4D2 activity assays were performed to determine CTP effects on each individual enzyme. Fluorescence was read using a PerkinElmer Envision, and percentage inhibition and compound activity calculated. […]
in complementation with EA generating a unit of active β-gal and based assay for the detection of dopamine, norepinephrine or sero-production of a chemiluminescent signal upon the addition of Path- tonin transporter activity in cells expressing these transporters. The Hunter detection reagents. kit employs a fluorescent substrate that mimics the biogenic amine neurotransmitters that are taken into the cell through these specific transporters, resulting in increased intracellular fluorescence inten-sity. […]
KINOMEscan® Assay fluorescence for improved signal/noise ratio. […]
Compounds that bind the kinase active site and directly (sterically) be monitored within a single experiment. or indirectly (allosterically) prevent kinase binding to the immobi-lized ligand, will reduce the amount of kinase captured on the solid Calcium Assay […]
kinase have no effect on the amount of kinase captured on the of changes in intracellular calcium. […] Upon stimulation, a quantitative, precise and ultra-sensitive qPCR method that detects the receptor signals release of intracellular calcium, which results in the associated DNA label (D). […]

ADRA2A = molecular target: T2, ADRA2A (Homo sapiens, UniProt P08913); experiment: ADRA2A GPCR cAMP modulation assay; format: cell-based; conditions: compared to the controls
T2 construct: host or cells: cAMP Hunter cell line
T2 sequence (P08913 whole entry): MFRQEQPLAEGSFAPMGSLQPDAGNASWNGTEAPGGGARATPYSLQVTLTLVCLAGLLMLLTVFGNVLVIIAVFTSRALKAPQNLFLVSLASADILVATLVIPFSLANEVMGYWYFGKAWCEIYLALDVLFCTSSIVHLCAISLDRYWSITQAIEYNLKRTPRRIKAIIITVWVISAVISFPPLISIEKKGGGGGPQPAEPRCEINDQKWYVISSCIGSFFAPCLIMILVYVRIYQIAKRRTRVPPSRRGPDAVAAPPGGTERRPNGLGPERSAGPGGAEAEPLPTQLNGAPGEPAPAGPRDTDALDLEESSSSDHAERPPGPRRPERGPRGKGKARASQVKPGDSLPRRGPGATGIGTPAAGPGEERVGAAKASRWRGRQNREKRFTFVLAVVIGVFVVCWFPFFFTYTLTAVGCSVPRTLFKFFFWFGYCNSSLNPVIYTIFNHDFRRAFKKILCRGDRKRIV
Method: GPCR cAMP Modulation Assays: cAMP Hunter cell lines were grown, plated, and subjected to Eurofins’ DiscoverX HitHunter cAMP XS+ assay. Gs agonist activity, Gi agonist activity, and antagonist activity-induced assays were read using chemiluminescent signal detection. The percentage of activity was calculated for Gs and Gi agonist assays, and the percentage of inhibition was calculated for Gs antagonist assays. […]
cAMP Second ary Messenger Assay pound results in the release of calcium from intracellular stores and DiscoverX has developed a panel of cell lines stably expressing non- an increase in dye fluorescence that is measured in real-time. tagged GPCRs that endogenously signal through cAMP. […]
The enzyme is split into two complementary portions: Enzyme Ac-ceptor (EA) and Enzyme Donor (ED). […] Active enzyme can then convert a chemilumines-cent substrate, generating an output signal detectable on a standard The NHR is tagged with the ProLink™ (PK) component of our EFC microplate reader. assay system, and the SRCP domain is fused to the Enzyme Ac-ceptor component (EA) expressed in the nucleus. […]

T1 sequence (P23219 24-599): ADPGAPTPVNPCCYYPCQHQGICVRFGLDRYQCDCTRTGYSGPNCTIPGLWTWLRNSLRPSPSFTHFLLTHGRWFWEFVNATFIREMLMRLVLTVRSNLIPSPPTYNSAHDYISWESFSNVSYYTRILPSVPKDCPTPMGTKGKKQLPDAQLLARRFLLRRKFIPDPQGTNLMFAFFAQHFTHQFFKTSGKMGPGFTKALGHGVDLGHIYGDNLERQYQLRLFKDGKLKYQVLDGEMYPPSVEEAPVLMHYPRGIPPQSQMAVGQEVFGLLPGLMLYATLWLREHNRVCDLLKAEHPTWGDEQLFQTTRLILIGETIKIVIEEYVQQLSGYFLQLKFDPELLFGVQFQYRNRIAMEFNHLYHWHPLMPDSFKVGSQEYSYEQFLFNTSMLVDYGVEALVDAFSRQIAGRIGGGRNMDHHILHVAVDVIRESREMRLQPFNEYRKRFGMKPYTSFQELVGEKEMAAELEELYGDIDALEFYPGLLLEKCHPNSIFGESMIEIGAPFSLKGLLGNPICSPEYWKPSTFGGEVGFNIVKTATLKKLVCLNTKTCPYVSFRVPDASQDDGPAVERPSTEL

Sequence: APWHLSSQYSRT [CTP]
- inhibition (COX1): some inhibition of COX1 was noted, although it did not reach the set significance threshold
- agonist or antagonist action (ADRA2A): no significant action as either an agonist or antagonist
